≈ marks a conversion by molar mass, not a printed value. Where two headings read alike, the source gives them in different places.
What was measured:
[1] = system: S. aureus Newbould (normal strain); assay: MIC, microdilution in BHI 48 h; format: cell-based, Staphylococcus aureus; conditions: Newbould, normal strain
[2] = system: S. aureus SCV NewbouldΔhemB; assay: MIC, microdilution in BHI 48 h; format: cell-based, Staphylococcus aureus
[3] = system: S. aureus CF07-L (normal strain); assay: MIC, microdilution in BHI 48 h (Examples 1, 3); format: cell-based, Staphylococcus aureus
S. aureus SCV CF07-S = assay: MIC, microdilution in BHI 48 h (Examples 1, 3); format: cell-based, Staphylococcus aureus
[4] = system: S. aureus CF1A-L (normal strain); assay: MIC, microdilution in BHI 48 h; format: cell-based, Staphylococcus aureus; conditions: CF1A-L, normal strain
S. aureus SCV CF1D-S = assay: MIC, microdilution in BHI 48 h; format: cell-based, Staphylococcus aureus; conditions: Staphylococcus aureus, SCVCF1DS
S. aureus 8325-4 = assay: MIC, microdilution in CAMHB 24 h; format: cell-based, Staphylococcus aureus; conditions: 8325-4, Laboratory strain
S. aureus Newbould = assay: MIC, microdilution in CAMHB 24 h; format: cell-based, Staphylococcus aureus; conditions: Newbould, Cow (mastitis)
S. aureus SHY97-3906 = assay: MIC, microdilution in CAMHB 24 h; format: cell-based, Staphylococcus aureus; conditions: SHY97-3906, Cow (mastitis)
S. aureus ATCC 43300 = assay: MIC, microdilution in CAMHB 24 h; format: cell-based, Staphylococcus aureus; conditions: ATCC 43300, Human (HA), MRSA
S. aureus ATCC BAA-41 = assay: MIC, microdilution in CAMHB 24 h; format: cell-based, Staphylococcus aureus; conditions: ATCC BAA-41, Human (HA), MRSA
S. aureus N315 = assay: microbe, parasite or virus in culture; format: cell-based, Staphylococcus aureus; conditions: MRSA
S. aureus MA078038 = assay: MIC, microdilution in CAMHB 24 h; format: cell-based, Staphylococcus aureus; conditions: MA078038, Human (CA), MRSA
S. aureus Newman = assay: MIC, microdilution in CAMHB 24 h; format: cell-based, Staphylococcus aureus; conditions: Newman, Human (Osteo)
S. aureus MRSA COL = assay: MIC, microdilution in CAMHB 24 h; format: cell-based, Staphylococcus aureus; conditions: MRSA COL, Human (SSTI)
S. aureus Mu50 = assay: MIC, microdilution in CAMHB 24 h; format: cell-based, Staphylococcus aureus; conditions: Mu50, Human (SSTI), MRSA, VISA
S. aureus Sa220c = assay: MIC, microdilution in CAMHB 24 h; format: cell-based, Staphylococcus aureus; conditions: Sa220c, Human (SSTI), MRSA
S. aureus Sa228c = assay: MIC, microdilution in CAMHB 24 h; format: cell-based, Staphylococcus aureus; conditions: MRSA
S. aureus CF1A-L = assay: MIC, microdilution in CAMHB 24 h; format: cell-based, Staphylococcus aureus; conditions: CF1A-L, Human (CF lungs)
S. aureus CF2A-L = assay: MIC, microdilution in CAMHB 24 h; format: cell-based; conditions: CF2A-L, Human (CF lungs)
S. aureus CF4B-L = assay: MIC, microdilution in CAMHB 24 h; format: cell-based, Staphylococcus aureus; conditions: CF4B-L, Human (CF lungs)
S. aureus CF6B-L = assay: MIC, microdilution in CAMHB 24 h; format: cell-based, Staphylococcus aureus; conditions: CF6B-L, Human (CF lungs)
S. aureus CF7A-L = assay: MIC, microdilution in CAMHB 24 h; format: cell-based, Staphylococcus aureus; conditions: CF7A-L, Human (CF lungs), MRSA
S. aureus CF8E-L = assay: MIC, microdilution in CAMHB 24 h; format: cell-based, Staphylococcus aureus; conditions: CF8E-L, Human (CF lungs)
S. aureus CF9A-L = assay: MIC, microdilution in CAMHB 24 h; format: cell-based, Staphylococcus aureus; conditions: CF9A-L, Human (CF lungs), MRSA
S. aureus CF35A-L = assay: MIC, microdilution in CAMHB 24 h; format: cell-based, Staphylococcus aureus; conditions: CF35A-L, Human (CF lungs), MRSA
S. aureus CF07-L = assay: MIC, microdilution in CAMHB 24 h; format: cell-based, Staphylococcus aureus; conditions: CF07-L, Human (CF lungs)
S. aureus ATCC 29213 [5] = assay: MIC, microdilution in BHI 48 h (Examples 1, 3); format: cell-based, Staphylococcus aureus
S. aureus ATCC 29213 [6] = assay: MIC, microdilution in CAMHB 24 h, with or without tomatidine/compound; format: cell-based, Staphylococcus aureus; conditions: ATCC 29213
[7] = Staphylococcus aureus, read-out: MIC

O=C(O)c1cn(C2CC2)c2cc(N3CCNCC3)c(F)cc2c1=O [Ciprofloxacin, ciprofloxacin]
MIC [1, 7]: 0.25 to 0.5 µg/mL (≈ 0.754 to 1.51 µM) | MIC ([2]; Staphylococcus aureus): 0.12 to 0.25 µg/mL (≈ 0.362 to 0.754 µM) | MIC ([3]; CF07-L + HQNO at 20 μg/ml): 0.25 µg/mL | MIC ([3]; CF07-L, without HQNO): 0.5 µg/mL (≈ 1.51 µM) | MIC ([3]; Staphylococcus aureus, CF07-L, normal strain, read-out: MIC): 0.5 µg/mL (≈ 1.51 µM) | MIC (S. aureus SCV CF07-S; CF07-S + HQNO at 20 μg/ml): 0.12 µg/mL | MIC (S. aureus SCV CF07-S; CF07-S, without HQNO): 0.12 µg/mL (≈ 0.362 µM) | MIC (S. aureus SCV CF07-S; Staphylococcus aureus, SCVCF07S): 0.12 µg/mL (≈ 0.362 µM) | MIC [4, 7]: 0.5 µg/mL (≈ 1.51 µM) | MIC (S. aureus SCV CF1D-S): 0.12 µg/mL (≈ 0.362 µM) | MIC (S. aureus 8325-4; Staphylococcus aureus, 83254, read-out: MIC): 0.25 to 0.5 µg/mL (≈ 0.754 to 1.51 µM) | MIC (S. aureus Newbould; [7]): 0.25 µg/mL (≈ 0.754 µM) | MIC (S. aureus SHY97-3906; Staphylococcus aureus, SHY973906, read-out: MIC): 0.25 µg/mL (≈ 0.754 µM) | MIC (S. aureus ATCC 43300; Staphylococcus aureus, ATCC 43300 / MRSA, read-out: MIC): 0.5 µg/mL (≈ 1.51 µM) | MIC (S. aureus ATCC BAA-41; Staphylococcus aureus, ATCC BAA-41 / MRSA, read-out: MIC): > 64 µg/mL | MIC (S. aureus N315; Staphylococcus aureus): 0.25 µg/mL (≈ 0.754 µM) | MIC (S. aureus MA078038; [7]): 16 µg/mL (≈ 48.3 µM) | MIC (S. aureus Newman; [7]): 0.25 µg/mL (≈ 0.754 µM) | MIC (S. aureus MRSA COL; [7]): 0.5 µg/mL (≈ 1.51 µM) | MIC (S. aureus Mu50; [7]): 32 to 64 µg/mL (≈ 96.6 to 193 µM) | MIC (S. aureus Sa220c; [7]): 32 µg/mL (≈ 96.6 µM) | MIC (S. aureus Sa228c; Staphylococcus aureus): > 64 µg/mL | MIC (S. aureus CF1A-L; Staphylococcus aureus, CF1AL, read-out: MIC): 0.5 to 1 µg/mL (≈ 1.51 to 3.02 µM) | MIC (S. aureus CF2A-L; Staphylococcus aureus, CF2AL, read-out: MIC): 0.25 µg/mL (≈ 0.754 µM) | MIC (S. aureus CF4B-L; Staphylococcus aureus, CF4BL, read-out: MIC): 0.25 to 0.5 µg/mL (≈ 0.754 to 1.51 µM) | MIC (S. aureus CF6B-L; Staphylococcus aureus, CF6BL, read-out: MIC): > 64 µg/mL | MIC (S. aureus CF7A-L; [7]): > 64 µg/mL | MIC (S. aureus CF8E-L; Staphylococcus aureus, CF8EL, read-out: MIC): 1 µg/mL (≈ 3.02 µM) | MIC (S. aureus CF9A-L; [7]): > 64 µg/mL | MIC (S. aureus CF35A-L; [7]): > 64 µg/mL | MIC (S. aureus CF07-L; Staphylococcus aureus, CF07L, read-out: MIC): 0.5 µg/mL (≈ 1.51 µM)

Cc1onc(-c2ccccc2)c1C(=O)N[C@@H]1C(=O)N2[C@@H]1SC(C)(C)[C@@H]2C(=O)O [Oxacillin, oxacillin]
MIC (S. aureus ATCC 29213 [5]; ATCC 29213 + HQNO at 20 μg/ml): 0.12 µg/mL | MIC (S. aureus ATCC 29213 [5]; ATCC 29213, without HQNO): 0.12 to 0.25 µg/mL | MIC (S. aureus ATCC 29213 [5]; ATCC 29213 in BHI): 0.12 to 0.25 µg/mL | MIC (S. aureus ATCC 29213 [5]; ATCC 29213 in MHBCA): 0.12 to 0.5 µg/mL | MIC [1]: 0.06 to 0.12 µg/mL | MIC ([2]; NewbouldΔhemB, SCV): 0.03 to 0.06 µg/mL | MIC ([3]; CF07-L + HQNO at 20 μg/ml): 0.06 to 0.12 µg/mL | MIC ([3]; CF07-L, normal strain): 0.06 to 0.12 µg/mL | MIC ([3]; CF07-L, without HQNO): 0.06 to 0.12 µg/mL | MIC [4]: 0.25 µg/mL (≈ 0.623 µM) | MIC (S. aureus ATCC 29213 [6]; Human (SSTI)): 0.25 µg/mL (≈ 0.623 µM) | MIC −TO (S. aureus ATCC 29213 [6]; absence of tomatidine): 0.25 µg/mL (≈ 0.623 µM) | MIC +TO (S. aureus ATCC 29213 [6]; presence of tomatidine at 8 μg/ml): 0.25 µg/mL | Fold (−TO/+TO) (S. aureus ATCC 29213 [6]; tomatidine at 8 μg/ml): 1 fold | MIC (S. aureus 8325-4): 0.12 µg/mL (≈ 0.299 µM) | MIC (S. aureus Newbould): 0.12 µg/mL (≈ 0.299 µM) | MIC (S. aureus SHY97-3906): 0.12 to 0.25 µg/mL | MIC (S. aureus ATCC 43300): 16-32 (R) μg/ml | MIC (S. aureus ATCC BAA-41): >64 (R) μg/ml | MIC (S. aureus N315; N315, Human (HA)): 8 (R) μg/ml | MIC (S. aureus MA078038): 64 (R) μg/ml | MIC (S. aureus Newman): 0.5 to 1 µg/mL | MIC (S. aureus MRSA COL): >64 (R) μg/ml | MIC (S. aureus Mu50): >64 (R) μg/ml | MIC (S. aureus Sa220c): 16-32 (R) μg/ml | MIC (S. aureus Sa228c; Sa228c, Human (SSTI)): >64 (R) μg/ml | MIC (S. aureus CF1A-L): 0.25 to 0.5 µg/mL | MIC (S. aureus CF2A-L): 0.25 µg/mL (≈ 0.623 µM) | MIC (S. aureus CF4B-L): 0.5 µg/mL (≈ 1.25 µM) | MIC (S. aureus CF6B-L): 0.25 to 1 µg/mL | MIC (S. aureus CF7A-L): >64 (R) μg/ml | MIC (S. aureus CF8E-L): 0.125 µg/mL (≈ 0.311 µM) | MIC (S. aureus CF9A-L): >64 (R) μg/ml | MIC (S. aureus CF35A-L): >64 (R) μg/ml | MIC (S. aureus CF07-L): 0.12 to 0.25 µg/mL
